Measurements: ChEMBL document CHEMBL5143533, “Development of isoquinolinone derivatives as immunoproteasome inhibitors” (Bioorg Med Chem Lett, 2022)
Where a SMILES comes first, the peptide text is derived from it. The star is where a group is joined. Cbz = O=C(OCc1ccccc1)*

What was measured:
[1] = Inhibition of 20S immuno proteosome beta5i subunit (unknown origin) assessed as substrate hydrolysis using Suc-Leu-Leu-Val-Tyr-AMC as fluorogenic substrate at 100 uM; design: species or system Homo sapiens
[2] = target: T1, Proteasome Macropain subunit MB1 (Homo sapiens, UniProt P28074); assay: Inhibition of 20S constitutive proteosome beta5c subunit (unknown origin) assessed as substrate hydrolysis using Suc-Leu-Leu-Val-Tyr-AMC as fluorogenic substrate at 100 uM
T1 sequence (P28074 whole entry): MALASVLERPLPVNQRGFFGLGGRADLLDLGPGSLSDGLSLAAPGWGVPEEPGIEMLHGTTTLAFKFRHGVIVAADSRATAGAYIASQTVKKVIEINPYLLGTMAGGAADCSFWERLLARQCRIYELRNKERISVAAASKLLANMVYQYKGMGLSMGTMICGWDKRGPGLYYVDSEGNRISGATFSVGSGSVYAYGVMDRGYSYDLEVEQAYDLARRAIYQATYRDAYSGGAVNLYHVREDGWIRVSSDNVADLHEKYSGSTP

[3] = Inhibition of 20S immuno proteosome beta5i subunit (unknown origin) assessed as substrate hydrolysis using Z-Leu-Leu-Leu-al as substrate; design: species or system Homo sapiens
[4] = species on record: Homo sapiens; assay: Reversible inhibition of 20S immuno proteosome beta 5i subunit (unknown origin) assessed as substrate hydrolysis using Suc-Leu-Leu-Val-Tyr-AMC as substrate at 0.25 to 25 uM by fluorescence based assay; conditions: dose 0.25-25 µM, time <= 600.0 sec, TDE = time-dependent effect
[5] = Cytotoxicity against human MM1.R cells assessed as reduction in cell vitality incubated for 24 hrs by MTT assay; type: functional, cell-based; conditions: MM.1R

Structure (SMILES)	Ki [1] [µM]	Ki [2] [µM]	Ki [3] [µM]	inhibition [4]	EC50 [5] [µM]
COc1cc2ccn(C/C=C/C(=O)NCCCc3ccccc3)c(=O)c2cc1OC	64	10.6	–	–	–
CC(C)C[C@@H](C=O)NC(=O)[C@H](CC(C)C)NC(=O)[C@H](CC(C)C)NC(=O)OCc1ccccc1 [MG-132] (Cbz-Leu-Leu-Leu-aldehyde)	–	–	0.07	–	–
COc1cc2ccn(C/C=C/C(=O)NCc3ccccc3)c(=O)c2cc1OC	65	–	–	–	–
COc1cc2ccn(C/C=C/C(=O)NC3CCCCC3)c(=O)c2cc1OC	55	23	–	–	–
CC(C)CCNC(=O)Cn1ccc2ccc(Br)cc2c1=O	–	–	–	–	17.8

More lines, main results first:

Ki [1] [µM]	Ki [2] [µM]	Ki [3] [µM]	inhibition [4]	Structure (SMILES)	EC50 [5] [µM]
50	49	–	–	COc1cc2ccn(C/C=C/C(=O)Nc3ccccc3)c(=O)c2cc1OC	–
49	19	–	–	CCCCNC(=O)/C=C/Cn1ccc2cc(OC)c(OC)cc2c1=O	–
1.91	1.18	–	Tde	COc1cc2ccn(C/C=C/C(=O)NCCC(C)C)c(=O)c2cc1OC	–
45	60	–	–	COc1cc2ccn(C/C=C/C(=O)NCCc3ccccc3)c(=O)c2cc1OC	–
